Patent US7067488B2, “Modified GLP-1 peptides with increased biological potency” (TheraTechnologies Inc., priority 2002, dated 2006)

How the values were obtained:
RINm5F cells = experiment: cAMP production in RINm5F cells; assay type: cell-based; conditions: Mean ± SD; for IC50: 40 minutes incubation with peptide, 0.5 mM IBMX
Description: RINm5F cells (ATCC # CRL-2058) were grown to confluence and used 4 days following confluency. Aqueous stock solutions (1 mM) of GLP-1, 5, 8, 16, and 17, also containing 0.1% BSA, were made prior to the assay. Cells were pre-incubated with 100 μl RPMI containing 0.5 mM IBMX for 10 minutes at 37° C. Diluted (10^−5 to 10^−11 M) peptides (100 μl) were added to the wells and incubated for 40 minutes. At the end of the incubation period, the supernatant was collected and assayed for cAMP using a radioimmunoassay kit (Diagnostic Product Corporation). Maximal responses (pmol/mg protein) and IC50 (nM) values were evaluated from the dose-response curves and data presented in Table 3.

[1] = cited from earlier work
Sprague-Dawley rats = experiment: Intraperitoneal glucose tolerance test (IPGTT), plasma insulin levels in Sprague-Dawley rats; assay type: in vivo; conditions: 10 μg/rat iv
Description: Sprague-Dawley rats (300–350 g) were fasted overnight, and injected with 1 g/kg glucose (2 ml) (over 15–20 seconds), and blood glucose levels were determined at different times during a period of 3 hours using a portable glucometer. The drugs (10 μg/rat) were dissolved in saline and injected into the femoral vein 5 minutes before the injection of glucose. Thus 0 time represents blood glucose and insulin levels after drug administration but before glucose injection. Plasma insulin levels were determined using a radioimmunoassay kit (Linco). […] The insulinogenic index was calculated as delta insulin (pM)/delta glucose (mM).

CD-1 normal female mice = conditions: 1 μg dose ip, CD-1 mice
Description: An OGTT was done as described above. Plasma insulin levels were determined using a commercial RIA kit (Linco Research).

db/db mice = experiment: OGTT in diabetic mice (db/db); assay type: in vivo; conditions: 5 μG/mouse ip
Description: An OGTT was conducted as described in Example 3. Peptides were injected intra-parentally (ip) at 5 μG/mouse doses.

IC50 (RINm5F cells)	Substance	Maximal Response (RINm5F cells)	accelerating glucose disposal compared to GLP-1 (db/db mice)	also measured
0.0064 ± 0.0038 µM	GLP-1 (7–37) OH [reference compound]	17.6 ± 5.1 pmol/mg protein	–	half-life of circulating GLP-1 ([1]; Kreymann et al., 1987): about 4 minutes; metabolic clearance rate ([1]; active GLP-1 (Holst, 1994)): 12 to 13 min; plasma half-life ([1]; active GLP-1 (Holst, 1994)): < 5 min; order of efficacy (Sprague-Dawley rats): 15=5>7=GLP-1>8=vehicle
0.0102 ± 0.0077 µM	[H7] 3-aminophenyl acetic acid GLP-1 (7–36) CONH2 [Compound 16]	13.8 ± 3.6 pmol/mg protein	–	–
0.0087 ± 0.0098 µM	[H7] 3-aminophenyl acetic acid GLP-1 (7–37) COOH [Compound 5]	20.0 ± 6.9 pmol/mg protein	–	–
–	[H7] 3-methoxyphenyl acetic acid GLP-1 (7–37) COOH [Compound 7]	–	performed better than GLP-1	effect on glucose disposal (CD-1 normal female mice): no effect on glucose disposal
–	[H7] (1S, 2S) 2-ethylcyclopropyl acetic acid GLP-1 (7–37) COOH [Compound 15]	–	performed better than GLP-1	–

Substance	IC50 (RINm5F cells)	Maximal Response (RINm5F cells)	accelerating glucose disposal compared to GLP-1 (db/db mice)	also measured
[H7] Salicylic acid GLP-1 (7–37) CONH2 [Compound 17]	0.0132 ± 0.0052 µM	21.9 ± 2.1 pmol/mg protein	–	–
[H7] Salicylic acid GLP-1 (7–37) COOH [Compound 8]	0.0139 ± 0.0156 µM	25.1 ± 11.9 pmol/mg protein	performed better than GLP-1	order of efficacy (Sprague-Dawley rats): 15=5>7=GLP-1>8=vehicle
